From ChEMBL document CHEMBL1131515, “2-Substituted-4-methoxybenzimidazole-based PDE4 inhibitors” (Bioorg Med Chem Lett, 1998) come the findings set out here.

In general, Ki refers to the equilibrium dissociation constant of an inhibitor or competing ligand from its target. The low end stands for tighter binding, the high end for weaker binding. By IC50 is commonly meant the concentration at which inhibition is half-maximal. Read a low IC50 as greater potency. Broadly, the ED50 is the dose at which the effect has come halfway, by size or by number of responders. In general, half-life refers to the time needed for the level to fall by half in the phase considered. The low end stands for rapid decline, the high end for slow decline. As a reminder, the bioavailability is dose-corrected exposure relative to a reference, in per cent. A lower bioavailability goes with poor availability.

Data set [1] can be described thus: Inhibition of Rolipram binding to PDE4.
The target of data set [2] is Phosphodiesterase 4 (Cavia porcellus). Kind of data set: Inhibition of PDE4 from guinea pig macrophages.
The species entered for data set [3] is Rattus norvegicus. Kind of data set: Inhibition of streptococcal cell wall(SCW) induced arthritis in rat on peroral dose. Format: functional. The following applies: po.
Data set [4] can be described thus: Rapid plasma clearance of compound was determined. Format: ADME.
The next data set is filed under the species Mus musculus. Kind of data set: Inhibition of lipopolysaccharide (LPS) stimulated TNF-alpha release in mice after peroral dose. It counts as functional. The following applies: po.
Data set [5] is described as follows: Compound was evaluated for its bioavailability in mice at a dose of 1 mg/kg. It counts as ADME, organism-based. The following applies: mouse, in vivo.
For data set [6], the target named is Phosphodiesterase 4 (Cavia porcellus). Kind of data set: Inhibition of Phosphodiesterase 4 (PDE4) from guinea pig macrophages.
Data set [7] in a line: Bioavailability in mouse. To be noted: in vivo. Format: ADME, organism-based.
Data set [8] is filed under the species Rattus norvegicus. Kind of data set: Inhibition of streptococcal cell wall(SCW) induced arthritis in rat. Format: functional.
Another data set concerns the target Phosphodiesterase 4 (Homo sapiens, UniProt P27815+Q08499+Q07343+Q08493). Kind of data set: Inhibition of Phosphodiesterase 4 (PDE4) from guinea pig macrophages. Format: protein assay, Cavia porcellus. To be noted: target entry is the homologue from another species.

Molecules are shown by their SMILES.

In turn, `COc1ccc(C(=O)Nc2c(Cl)cncc2Cl)c2c1nc(C1CCCC1)n2C` had a Ki in data set [1] of 0.34 µM. In [2], the IC50 was 0.54 µM.
Taken in the same sequence, the figures for `COc1ccc(C(=O)Nc2c(Cl)cncc2Cl)c2nc(C3CCCC3)n(C)c12` were 10 µM and 4.4 µM.
The corresponding values for `COc1ccc(C(=O)Nc2c(Cl)cncc2Cl)c2[nH]c(CCc3ccccc3)nc12` are 0.056 µM and 0.023 µM.
`COCc1nc2c(OC)ccc(C(=O)Nc3c(Cl)c[n+]([O-])cc3Cl)c2[nH]1`: the median effective dose (ED50) in the data set filed under Rattus norvegicus [3] was determined as 5 mg/kg; in the data set filed under Mus musculus it was 7 mg/kg. In data set [4], this compound had a half-life of 2.5 h. For the same compound, the Ki in data set [1] amounted to 0.045 µM. In data set [5], this compound returned a bioavailability of 87%. The IC50 in data set [6] stood at 0.045 µM.
Regarding `COc1ccc(C(=O)Nc2c(Cl)cncc2Cl)cc1OC1CCCC1`, in data set [7], the bioavailability was < 5%. The compound further registered a Ki in [1] of 0.001 µM.
For the compound `COc1ccc(C(=O)Nc2c(Cl)cncc2Cl)c2[nH]c(Cc3ccccc3)nc12`, in data set [1], the inhibition constant (Ki) is 0.075 µM. The same compound came in with a half-inhibitory concentration (IC50) in data set [2] of 0.025 µM.
On to `COc1ccc(C(=O)Nc2c(Cl)cncc2Cl)c2[nH]c(C3CC3)nc12`, for which, in [1], the inhibition constant (Ki) came to 0.001 µM. Further, the IC50 in [2] came to 0.002 µM.
`COc1ccc(C(=O)Nc2c(Cl)c[n+]([O-])cc2Cl)c2[nH]c(C(C)C)nc12` registered a Ki in data set [1] of 0.024 µM. The compound also came in with an IC50 in data set [6] of 0.028 µM.
Compound `COc1ccc(C(=O)Nc2c(Cl)cncc2Cl)c2[nH]c(C(C)C)nc12` gave a bioavailability in [7] of 16%. In data set [1], this compound returned an inhibition constant Ki of 0.024 µM. The IC50 in data set [2] stood at 0.027 µM. In addition, it took a dose of 10 mg/kg to reach the 50% effect level in the data set listed under Mus musculus (ED50).
Compound `COCc1nc2c(OC)ccc(C(=O)Nc3c(Cl)cncc3Cl)c2[nH]1` returned a bioavailability in data set [7] of 35%. For the same compound, in data set [1], the affinity, expressed as Ki, was 0.025 µM. For the same compound, the figures for the 50% effective dose (ED50) in the data set filed under Mus musculus and in the data set listed under Rattus norvegicus [8] were 2 mg/kg and 10 mg/kg, respectively.
In [1], `COc1ccc(C(=O)Nc2c(Cl)cncc2Cl)c2[nH]c(C3CCCC3)nc12` came in with a Ki of 0.54 µM. The same compound registered an IC50 in data set [2] of 0.1 µM.
Taken in the same sequence, the figures for `COc1ccc(C(=O)Nc2c(Cl)cncc2Cl)c2[nH]c(C)nc12` were 0.712 µM and 0.45 µM.
Compound `OCCN(CCO)c1nc(N2CCCCC2)c2nc(N(CCO)CCO)nc(N3CCCCC3)c2n1` [DIPYRIDAMOLE] gave an IC50 against Phosphodiesterase 4 of 0.5 µM. In other words, the sub-micromolar range.
